Source: patent publication US11725011B2, “Bicyclic urea kinase inhibitors and uses thereof” (The Broad Institute, Inc., priority 2016, dated 2023)

Assays:
[1] = molecular target: full length His6-MBP-tagged hSIK2 (Homo sapiens (Human), UniProt Q9H0K1); assay: SIK2 kinase activity assay (Caliper-based mobility shift); type: biochemical; details: 4 nM hSIK2, 30 μM ATP, 1 hr, rt
Procedure: Reactions were quenched by adding 20 mM EDTA (pH 8) after 1 hr, and percentage of substrate conversion was measured by LabChip EZ Reader II (PerkinElmer).

SIK1 = SIK1 (Homo sapiens (Human), UniProt P57059); assay: Percent activity against SIK1 at 1 μM; type: biochemical; details: for SIK1 % ACTIVITY: compound at 1 μM, approximate Km for ATP
SIK1, sequence (P57059 whole entry): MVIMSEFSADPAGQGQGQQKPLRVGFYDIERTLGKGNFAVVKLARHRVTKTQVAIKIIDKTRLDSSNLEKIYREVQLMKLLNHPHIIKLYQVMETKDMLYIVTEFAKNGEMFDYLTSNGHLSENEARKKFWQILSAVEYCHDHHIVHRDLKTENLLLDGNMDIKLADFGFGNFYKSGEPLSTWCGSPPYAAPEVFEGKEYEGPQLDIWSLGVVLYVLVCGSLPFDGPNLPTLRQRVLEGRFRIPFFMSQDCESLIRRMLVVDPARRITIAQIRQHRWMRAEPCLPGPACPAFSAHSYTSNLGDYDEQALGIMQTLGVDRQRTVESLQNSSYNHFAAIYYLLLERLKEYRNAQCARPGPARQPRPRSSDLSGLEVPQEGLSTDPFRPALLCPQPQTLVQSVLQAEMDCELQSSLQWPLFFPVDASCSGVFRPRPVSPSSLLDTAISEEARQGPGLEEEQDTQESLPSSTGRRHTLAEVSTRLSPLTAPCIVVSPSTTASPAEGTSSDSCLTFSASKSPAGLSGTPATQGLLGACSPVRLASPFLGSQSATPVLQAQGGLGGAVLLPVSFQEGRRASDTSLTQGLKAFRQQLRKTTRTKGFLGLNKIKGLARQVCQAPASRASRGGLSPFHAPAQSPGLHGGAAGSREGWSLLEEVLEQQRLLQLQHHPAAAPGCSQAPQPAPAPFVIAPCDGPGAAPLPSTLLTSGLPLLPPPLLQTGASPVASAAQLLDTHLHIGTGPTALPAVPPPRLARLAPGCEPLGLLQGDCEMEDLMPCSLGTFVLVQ

SIK2 = SIK2 (Homo sapiens (Human), UniProt Q9H0K1); assay: Percent activity against SIK2 at 1 μM; type: biochemical; details: for SIK2 % ACTIVITY: compound at 1 μM, approximate Km for ATP
SIK2, sequence (Q9H0K1 whole entry): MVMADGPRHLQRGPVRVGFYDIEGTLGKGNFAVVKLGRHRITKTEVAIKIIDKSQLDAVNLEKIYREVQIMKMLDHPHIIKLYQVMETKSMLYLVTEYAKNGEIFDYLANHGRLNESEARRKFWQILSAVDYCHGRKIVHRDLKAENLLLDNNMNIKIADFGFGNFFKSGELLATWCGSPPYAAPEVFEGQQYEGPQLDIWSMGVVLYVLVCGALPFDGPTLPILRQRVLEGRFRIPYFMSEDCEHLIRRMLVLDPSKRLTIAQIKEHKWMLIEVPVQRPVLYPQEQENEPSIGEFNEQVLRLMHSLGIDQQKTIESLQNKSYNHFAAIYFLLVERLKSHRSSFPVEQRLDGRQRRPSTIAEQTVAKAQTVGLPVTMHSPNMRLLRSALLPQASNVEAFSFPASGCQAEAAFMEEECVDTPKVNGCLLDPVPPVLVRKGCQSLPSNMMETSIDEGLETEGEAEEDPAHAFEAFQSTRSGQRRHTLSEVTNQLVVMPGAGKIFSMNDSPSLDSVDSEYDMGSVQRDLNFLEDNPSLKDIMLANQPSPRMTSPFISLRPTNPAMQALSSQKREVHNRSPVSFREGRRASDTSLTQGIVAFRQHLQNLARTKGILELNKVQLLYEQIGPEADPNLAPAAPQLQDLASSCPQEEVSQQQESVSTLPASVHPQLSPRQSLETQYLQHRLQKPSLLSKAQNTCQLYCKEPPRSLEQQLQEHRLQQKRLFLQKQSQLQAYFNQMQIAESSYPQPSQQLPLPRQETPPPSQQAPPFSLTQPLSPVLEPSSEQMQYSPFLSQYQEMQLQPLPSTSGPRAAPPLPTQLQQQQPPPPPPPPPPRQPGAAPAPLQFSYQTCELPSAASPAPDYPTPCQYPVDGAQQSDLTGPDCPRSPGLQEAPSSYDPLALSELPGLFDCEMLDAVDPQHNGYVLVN

[2] = qAC50 biological assay (Table 4); details: for Data Mode: curve direction of qAC50 data
Viability loss (Table 4) = type: cell-based
SIK3 = SIK3 (Homo sapiens (Human), UniProt Q9Y2K2); assay: Percent activity against SIK3 at 1 μM; type: biochemical; details: for SIK3 % ACTIVITY: compound at 1 μM, approximate Km for ATP
SIK3, sequence (Q9Y2K2 whole entry): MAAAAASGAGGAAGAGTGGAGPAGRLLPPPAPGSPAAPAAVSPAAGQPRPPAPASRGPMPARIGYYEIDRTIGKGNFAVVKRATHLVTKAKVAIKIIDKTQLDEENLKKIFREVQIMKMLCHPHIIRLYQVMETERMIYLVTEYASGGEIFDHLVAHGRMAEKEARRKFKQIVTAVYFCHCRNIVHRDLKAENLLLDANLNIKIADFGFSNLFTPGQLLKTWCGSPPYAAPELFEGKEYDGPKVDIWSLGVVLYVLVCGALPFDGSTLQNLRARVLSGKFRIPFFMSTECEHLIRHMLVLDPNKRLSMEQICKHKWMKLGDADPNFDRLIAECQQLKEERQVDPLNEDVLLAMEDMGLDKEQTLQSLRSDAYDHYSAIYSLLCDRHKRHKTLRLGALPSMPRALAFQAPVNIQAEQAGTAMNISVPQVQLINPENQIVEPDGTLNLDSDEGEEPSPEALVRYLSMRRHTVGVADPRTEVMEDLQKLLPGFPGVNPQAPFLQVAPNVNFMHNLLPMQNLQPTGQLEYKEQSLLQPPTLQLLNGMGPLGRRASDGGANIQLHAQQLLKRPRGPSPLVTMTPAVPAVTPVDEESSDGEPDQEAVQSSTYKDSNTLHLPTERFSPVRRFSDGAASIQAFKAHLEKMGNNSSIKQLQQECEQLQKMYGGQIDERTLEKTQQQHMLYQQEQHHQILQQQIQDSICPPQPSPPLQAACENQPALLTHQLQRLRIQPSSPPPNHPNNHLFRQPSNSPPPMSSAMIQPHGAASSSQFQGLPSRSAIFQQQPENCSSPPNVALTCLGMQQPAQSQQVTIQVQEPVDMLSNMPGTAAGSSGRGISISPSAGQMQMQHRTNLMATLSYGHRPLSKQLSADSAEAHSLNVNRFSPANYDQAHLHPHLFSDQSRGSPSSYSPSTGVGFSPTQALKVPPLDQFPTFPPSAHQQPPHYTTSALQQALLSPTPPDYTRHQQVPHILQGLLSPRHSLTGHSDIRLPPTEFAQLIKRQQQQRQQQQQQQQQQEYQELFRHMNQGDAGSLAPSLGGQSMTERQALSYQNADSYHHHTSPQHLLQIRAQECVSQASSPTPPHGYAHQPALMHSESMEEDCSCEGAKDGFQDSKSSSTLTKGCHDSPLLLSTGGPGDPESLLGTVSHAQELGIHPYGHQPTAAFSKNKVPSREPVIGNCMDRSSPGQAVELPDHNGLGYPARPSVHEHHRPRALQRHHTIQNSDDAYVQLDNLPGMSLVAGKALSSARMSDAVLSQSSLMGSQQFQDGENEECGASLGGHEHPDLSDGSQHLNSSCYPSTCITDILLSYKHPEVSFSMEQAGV

full length His6-MBP-tagged hSIK2, sequence (Q9H0K1 whole entry): as the sequence (Q9H0K1 whole entry) above

SMILES	IC50 [1]	SIK1 % ACTIVITY (SIK1)	SIK2 % ACTIVITY (SIK2)	Enzyme activity at 1 μM (%) SIK1 (SIK1)	Enzyme activity at 1 μM (%) SIK2 (SIK2)	Enzyme activity at 1 μM (%) SIK3 (SIK3)	SIK3 % ACTIVITY (SIK3)	qAC50 [2]	Data Mode [2]	Viability loss AC40 (Viability loss (Table 4))	Viability loss data mode (Viability loss (Table 4))
COc1ccc(N2C(=O)N(c3c(C)cccc3C)Cc3cnc(Nc4ccc(N5CCN(C)CC5)cc4OC)nc32)c(OC)c1 [HG-11-139-01]		15.3%	2.1%	15.3%	2.1%	7.5%	7.5%	<50 nM	increasing	8910 nM	decreasing
COc1ccc(N2C(=O)N(c3c(C)cccc3Cl)Cc3cnc(Nc4ccc(N5CCN(C)CC5)cc4OC)nc32)nc1 [YKL-05-96]	34 ± 14 nM										
Cc1ccc(Nc2ncc3c(n2)N(C)C(=O)N(c2cc(NC(=O)c4cccc(C(F)(F)F)c4)ccc2C)C3)cn1 [GNF-7]		12.0%	27.4%								
COc1ccc(N2C(=O)N(c3c(C)cccc3C)Cc3cnc(Nc4cc(N5CCOCC5)cc(N5CCN(C)CC5)c4)nc32)c(OC)c1 [HG-11-143-01]		7.9%	4.3%	7.9%	4.3%	9.3%	9.3%	469 nM	decreasing		

Further lines, with some results ahead:

IC50 [1]	SIK1 % ACTIVITY (SIK1)	SIK2 % ACTIVITY (SIK2)	Enzyme activity at 1 μM (%) SIK1 (SIK1)	Enzyme activity at 1 μM (%) SIK2 (SIK2)	Enzyme activity at 1 μM (%) SIK3 (SIK3)	SIK3 % ACTIVITY (SIK3)	SMILES	qAC50 [2]	Data Mode [2]	Viability loss AC40 (Viability loss (Table 4))	Viability loss data mode (Viability loss (Table 4))
6 ± 3 nM							COc1ccc(N2C(=O)N(c3c(C)cccc3Cl)Cc3cnc(Nc4ccc(N5CCN(C)CC5)cc4)nc32)nc1 [YKL-05-95]				
	36.0%	32.8%					COc1cc(N2CCN(C)CC2)ccc1Nc1ncc2c(n1)N(C)C(=O)N(c1ccccc1)C2 [HG-11-139-02]	>26000 nM	increasing	> 10000 nM	inactive
	12.5%	7.0%	12.5%	7%			Cc1ccc(NC(=O)c2cccc(C(F)(F)F)c2)cc1N1Cc2cnc(Nc3ccc(N4CCN(C)CC4)cc3)nc2N(C)C1=O [HG-11-23-01]	<50 nM	decreasing	106 nM	decreasing
	12.9%	1.4%	12.9%	1.4%	8.6%	8.6%	CN1CCN(c2ccc(Nc3ncc4c(n3)N(C)C(=O)N(c3ccccc3)C4)cc2)CC1 [HG-11-137-01]	466 nM	increasing	6960 nM	decreasing
